Assay results published in patent US10183019B2, “Treatment of cancer with dihydropyrazino-pyrazines” (Signal Pharmaceuticals, LLC, priority 2013, dated 2019).

Legend:
Experiment in all cases: Gliomasphere Cell Number Assay
Format in all cases: cell-based
[1] = system: patient-derived GBM cell line 350; details: cell line 350, Recurrent; 50% cell numbers vs DMSO control, Day 2 to Day 9; read-out: IC50 Cell Survival
Description: (§1) Gliomasphere Cell Number Assay. Primary patient-derived GBM tumor samples were dissociated and plated under culture conditions that produce gliomaspheres (i.e. DMEM/F12 medium supplemented with B27, 20 ng/mL bFGF, 50 ng/mL EGF, penicillin/streptomycin, L-glutamine and 5 ug/mL heparin). Cells were plated at a density of 5000 cells/well and allowed to acclimate overnight at 37° C. The Dihydropyrazino-Pyrazine Compounds were added to the cultures on Day 2 and cells were kept in culture until Day 9. On Day 9, the cells were fixed with PFA/methanol and the next day assessed for cell number, using for example, SYTO-9 fluorescent DNA dye. Plates were read 48 h later with a laser scanning imager.

[2] = system: patient-derived GBM cell line 390; details: cell line 390, Primary, MGMT status −; 50% cell numbers vs DMSO control, Day 2 to Day 9; read-out: IC50 Cell Survival
Description: as §1

[3] = system: patient-derived GBM cell line 250; details: cell line 250, Recurrent, MGMT Unkn/Highly Expressed; 50% cell numbers vs DMSO control, Day 2 to Day 9; read-out: IC50 Cell Survival
Description: as §1

[4] = system: patient-derived GBM cell line 245; details: cell line 245, Recurrent; 50% cell numbers vs DMSO control, Day 2 to Day 9; read-out: IC50 Cell Survival
Description: as §1

[5] = system: patient-derived GBM cell line 296; details: cell line 296, Recurrent, MGMT status −; 50% cell numbers vs DMSO control, Day 2 to Day 9; read-out: IC50 Cell Survival
Description: as §1

[6] = system: patient-derived GBM cell line 248; details: cell line 248, Recurrent, MGMT status Slightly elevated; 50% cell numbers vs DMSO control, Day 2 to Day 9; read-out: IC50 Cell Survival
Description: as §1

[7] = system: patient-derived GBM cell line 206; details: cell line 206, Recurrent, MGMT Unkn/Highly Expressed; 50% cell numbers vs DMSO control, Day 2 to Day 9; read-out: IC50 Cell Survival
Description: as §1

[8] = system: patient-derived GBM cell line 277; details: cell line 277, Secondary/Recurrent; 50% cell numbers vs DMSO control, Day 2 to Day 9; read-out: IC50 Cell Survival
Description: as §1

[9] = system: patient-derived GBM cell line 336; details: cell line 336, Recurrent, MGMT status +; 50% cell numbers vs DMSO control, Day 2 to Day 9; read-out: IC50 Cell Survival
Description: as §1

[10] = system: patient-derived GBM cell line 347; details: cell line 347, Recurrent, MGMT status −; 50% cell numbers vs DMSO control, Day 2 to Day 9; read-out: IC50 Cell Survival
Description: as §1

[11] = system: patient-derived GBM cell line 374; details: cell line 374, Primary, MGMT status −; 50% cell numbers vs DMSO control, Day 2 to Day 9; read-out: IC50 Cell Survival
Description: as §1

[12] = system: patient-derived GBM cell line 393; details: cell line 393, Primary, MGMT status +; 50% cell numbers vs DMSO control, Day 2 to Day 9; read-out: IC50 Cell Survival
Description: as §1

[13] = system: patient-derived GBM cell line 157; details: cell line 157, Primary, MGMT status −; 50% cell numbers vs DMSO control, Day 2 to Day 9; read-out: IC50 Cell Survival
Description: as §1

[14] = system: patient-derived GBM cell line 254; details: cell line 254, Recurrent; 50% cell numbers vs DMSO control, Day 2 to Day 9; read-out: IC50 Cell Survival
Description: as §1

[15] = system: patient-derived GBM cell line 229; details: cell line 229, Recurrent; 50% cell numbers vs DMSO control, Day 2 to Day 9; read-out: IC50 Cell Survival
Description: as §1

[16] = system: patient-derived GBM cell line 217; details: cell line 217, Primary; 50% cell numbers vs DMSO control, Day 2 to Day 9; read-out: IC50 Cell Survival
Description: as §1

[17] = system: patient-derived GBM cell line 371; details: cell line 371, Recurrent, MGMT status −; 50% cell numbers vs DMSO control, Day 2 to Day 9; read-out: IC50 Cell Survival
Description: as §1

[18] = system: patient-derived GBM cell line 301; details: cell line 301, Primary, MGMT status −; 50% cell numbers vs DMSO control, Day 2 to Day 9; read-out: IC50 Cell Survival
Description: as §1

[19] = system: patient-derived GBM cell line 378; details: cell line 378, Recurrent, MGMT status −; 50% cell numbers vs DMSO control, Day 2 to Day 9; read-out: IC50 Cell Survival
Description: as §1

[20] = system: patient-derived GBM cell line 207; details: cell line 207, Recurrent; 50% cell numbers vs DMSO control, Day 2 to Day 9; read-out: IC50 Cell Survival
Description: as §1

[21] = system: patient-derived GBM cell line 308; details: cell line 308, Recurrent, MGMT Unkn/Highly Expressed; 50% cell numbers vs DMSO control, Day 2 to Day 9; read-out: IC50 Cell Survival
Description: as §1

Q: Which results are given for CCN1C(=O)CNc2ncc(-c3ccc(-c4nc[nH]n4)nc3C)nc21 [Compound 1, 1-ethyl-7-(2-methyl-6-(1H-1,2,4-triazol-3-yl)pyridin-3-yl)-3,4-dihydropyrazino[2,3-b]pyrazin-2(1H)-one]?
A: IC50 [1]: 99.6 nM; IC50 [2]: 65.9 nM; IC50 [3]: 70.6 nM; IC50 [4]: 68.7 nM; IC50 [5]: 74.5 nM; IC50 [6]: 441 nM; IC50 [7]: 163 nM; IC50 [8]: 107 nM; IC50 [9]: 231 nM; IC50 [10]: 163 nM; IC50 [11]: 165 nM; IC50 [12]: 178 nM; IC50 [13]: 46.8 nM; IC50 [14]: 99.6 nM; IC50 [15]: 115 nM; IC50 [16]: 71.9 nM; IC50 [17]: 368 nM; IC50 [18]: 313 nM; IC50 [19]: 81.3 nM; IC50 [20]: 100 nM; IC50 [21]: 68.2 nM
